Experimental data published in ChEMBL document CHEMBL1158294, “Antiplatelet arylnaphthalide lignans from Justicia procumbens” (J Nat Prod, 1996).

tested on: Platelet; test: Inhibition of arachidonic acid-induced platelet aggregation in rabbit […] by turbidimetric method; type: functional, cell-based; settings: Oryctolagus cuniculus

| SMILES | IC50 [µM] |
| --- | --- |
| CC(=O)Oc1ccccc1C(=O)O [ASPIRIN] | 20.3 |
| COc1ccc(-c2c3c(c(OC)c4cc5c(cc24)OCO5)COC3=O)cc1OC [CHINENSINAPHTHOL METHYL ETHER] | 18.8 |
| COc1cc2c(O)c3c(c(-c4ccc5c(c4)OCO5)c2cc1OC)C(=O)OC3 [DIPHYLLIN] | > 100 |
| COc1ccc2c(c1)c(CC(=O)O)c(C)n2C(=O)c1ccc(Cl)cc1 [INDOMETHACIN] | 0.21 |
| COc1cc2c(OC)c3c(c(-c4ccc5c(c4)OCO5)c2cc1OC)C(=O)OC3 [JUSTICIDIN A] | 31.7 |
| COc1c2c(c(-c3ccc4c(c3)OCO4)c3cc4c(cc13)OCO4)COC2=O [NEOJUSTICIN A] | 1.1 |
| COc1cc2c(OC)c3c(c(-c4ccc5c(c4)OCO5)c2cc1OC)COC3=O [NEOJUSTICIN B] | 50.8 |
| COc1c2c(c(-c3ccc4c(c3)OCO4)c3cc4c(cc13)OCO4)C(=O)OC2 [TAIWANIN E METHYL ETHER] | 1.7 |
| O=C1OCc2c1c(-c1ccc3c(c1)OCO3)c1cc3c(cc1c2O)OCO3 [TAIWANIN E] | 8 |
